Experimental data as given in patent US20070259087A1, “Antimicrobial Peptides” (Novozymes A/S, priority 2003, published 2007).
Like-named read-outs stand apart in the source and are kept apart here. Where no end group is shown, it is not given here.

Legend:
Eschericia coli = assay: Antimicrobial activity by radial diffusion assay (MEC); assay type: cell-based
Protocol: (§1) A modified version of a previously published protocol has been applied in the detection of antimicrobial activity (Lehrer et al., (1991) Ultra sensitive assays for endogenous antimicrobial polypeptides J Immunol Methods 137: 167-173). Target bacteria (10^6 colony forming units (CFU)) were added to 10 ml of underlay agarose (1% low electro-endosmosis agarose, 0.03% Trypticase soy broth, 10 mM sodium phosphate, pH 7.4, 37 degrees Celsius). Suspension was solidified on an INTEGRID Petri Dish (Becton Dickinson Labware). A 3 mm Gel Puncher was used to make holes in the underlay agarose (Amersham Pharmacia Biotech, Sweden). Samples were added to the holes and incubated at 37 degrees Celsius, 3 hours. An overlay was poured on top and the plate was incubated overnight (LB media, 7.5% Agar). Antimicrobial activity was seen as bacterial clearing zones around the wells. Living cells was counterstained by adding 10 ml, 0.2 mM MTT (3-(4,5-Dimethylthiazol-2-yl)-2,5-diphenyltetrazolium bromide Thiazolyl blue).

Bacillus subtilis = assay: as above; assay type: cell-based
Protocol: as §1

[1] = system: Pseudomonas aeroginosa (ATCC 27853); assay: Killing kinetics in MHB (viable cells, CFU/ml); assay type: cell-based; settings: 4×MIC concentration
Protocol: The rate of killing of Gen2 was determined in MHB using Pseudomonas aeroginosa (ATCC 27853) as the test organism. The bacteria were incubated with Gen2 (at 4×MIC concentration). At different time-points, several dilutions of the preparation were plated and an estimate of viable cells was determined (CFU/ml). The results in Table 2 indicate that Gen2 rapidly kills the bacteria, with a near 3-log reduction in CFU within 30 minutes.

E. coli TOP10 = assay type: cell-based; settings: TOP10, 14 h
Protocol: A range of synthetic antimicrobial polypeptides were expressed in E. coli TOP10 (Invitrogen) using arabinose as inducer, as disclosed in Example 1 of International patent application WO 00/73433 (with minor modifications). […] Briefly, fresh overnight cultures grown in RM medium containing 0.2% glucose and ampicillin (100 μg/ml) were diluted 300-fold into 150 microliter of RM containing 0.2% glycerol and ampicillin (100 μg/ml) and different concentrations of arabinose (0, 0.01% or 0.1%) in a microtiter plate and incubated at 37 degrees Celsius with vigorous shaking. The growth curve was monitored by measuring OD450 using a Bioscreen C Microbiology reader (Thermo Electron Corporation) at intervals of 30 minutes for 14 hours (see Invitrogen protocol of the pBAD/gill A, B and C vectors catalogue nos. V450-01 for buffer and media composition). The percentage of growth inhibition was calculated as the end point OD measurement of each sample divided by the end point OD measurement obtained from cells containing the control vector and multiplied by 100. The formula is the following: [formula] where “blank OD” corresponds to the OD of an empty well.

[2] = system: Pseudomonas aeroginosa (ATCC 27853)
Description: The selected test organism was Pseudomonas aeroginosa (ATCC 27853).

## GLLSKLKKAAKKALKHVL [Gen2, GLLSKLKKAAKKALKHVL]
Eschericia coli
  antimicrobial activity (MEC): < 64 µg/mL
Bacillus subtilis
  antimicrobial activity (MEC): < 64 µg/mL
[1]; 0 hours
  viable cells: 100.000 CFU/ml
[1]; 0.5 hours
  viable cells: 115 CFU/ml
[1]; 1.5 hours
  viable cells: 60 CFU/ml
[1]; 24 hours
  viable cells: <20 CFU/ml
[1]; within 30 minutes
  reduction in CFU: ~3 log
E. coli TOP10
  Growth inhibition using 0.01% arabinose (%): 51%
  Growth inhibition using 0.1% arabinose (%): 48%
[2]; ATCC 27853
  MIC: 15 µg/mL
[2]; ATCC 27853, pH 5.5
  MIC: 16 µg/mL
[2]; ATCC 27853, pH 6.5
  MIC: 16 µg/mL
